Common to all, as to assay: NCI-60 cell line screen, 48 h
Assay [1] concerns T-47D breast.
Assay [2] has as its system SNB-75 CNS.
Assay [3] concerns ACHN renal.
In assay [4] the test system is TK-10 renal.
Assay [5] deals with K-562 leukemia.
The test system of assay [6] is BT-549 breast.
The subject of assay [7] is OVCAR-8 ovarian.
In assay [8] the test system is MOLT-4 leukemia.
Assay [9] has as its system HCT-15 colon.
Assay [10] relates to SN12C renal.
Assay [11] has as its system SK-OV-3 ovarian.
Assay [12] has as its system MDA-MB-435.
For assay [13], the system named is MCF7 breast.
The subject of assay [14] is HT29 colon.
The test system of assay [15] is SW-620 colon.
For assay [16], the system named is NCI-H522 lung.

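Cells were grown in 96-well plates and exposed to each compound for 48 hours at five concentrations; endpoints were interpolated linearly between bracketing concentrations, or set to the highest concentration if not reached. The concentration for full growth arrest is given as TGI.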 Bounds are passed on as bounds.

This is an account of results in PubChem BioAssay (NCI).

Consider `COC(=O)C(COC(C)=O)NC(=O)/C=C/c1ccc(O)c(OC(C)=O)c1` (stereo not drawn), for which the TGI in assay [1], in [2], in [3], in assay [4], in [5] and in assay [6] was greater than 100 µM in each case. Further, the TGI in [7], in assay [8], in assay [9], in assay [10], in assay [11] and in assay [12] was greater than 100 µM each time. Also, the TGI is greater than 100 µM in assay [13], greater than 100 µM in assay [14], greater than 100 µM in assay [15] and 40.4 µM in [16].

`Clc1ccc(-c2c(C3=NCCCN3)nnn2-c2ccc(Cl)cc2)cc1`: the TGI in assay [1] was greater than 59.8 µM; in [2], greater than 72.2 µM; in assay [3] it was greater than 100 µM; in [4], greater than 77.5 µM; in [5], 48.5 µM; in assay [6], greater than 100 µM. Further, the TGI is greater than 88.2 µM in assay [7]; 60.9 µM in [8]; greater than 100 µM in [9]; greater than 100 µM in assay [10]; greater than 100 µM in [11]; 35.9 µM in assay [12]. The TGI is greater than 55.8 µM in assay [13], 64.4 µM in assay [14], greater than 76.5 µM in [15] and 64.3 µM in assay [16].

Consider `O=C(Cc1ccccc1)N/N=C/c1ccccc1O`, for which the TGI in [1] was greater than 100 µM; in assay [2], 59.8 µM; in assay [3], 61 µM; in assay [4], greater than 100 µM; in assay [5], greater than 100 µM; in [6], greater than 100 µM. For the same compound, the TGI in assay [7], in assay [8], in [9], in assay [10], in assay [11] and in assay [12] was greater than 100 µM throughout. Moreover, the TGI in [13], in assay [14], in assay [15] and in assay [16] was greater than 100 µM each time.
